Experimental data taken from article PMC4792926, “G9a-mediated methylation of ERα links the PHF20/MOF histone acetyltransferase complex to hormonal gene expression” (Nature Communications, 2016).
Entries after “also recorded” stand apart in the source; their conditions may differ.

Tests used:
endogenous G9a = assay: Global histone H3K9me2 western blot (endogenous G9a activity) in MCF-7 cells; assay type: cell-based, human; settings: 4 and 8 μM for 24 h
Protocol: (§1) Human MCF-7, T-47D, U2OS and HEK293T cells (ATCC) were cultured in DMEM (Cellgro) supplemented with 10% fetal bovine serum (FBS, Sigma). For G9a inhibitor treatment, BIX-01294 (Sigma) was added to the medium, at the indicated concentrations, 24 h before the cells were collected. For shRNA knockdown, 293T cells were co-transfected with pMD2.G and pPAX2 (Addgene) together with pLKO-shRNA constructs or a non-targeting pLKO-shRNA (pLKO-shCtrl). Viral supernatants were harvested after 48 h. For infections, MCF-7 or T-47D cells were incubated with viral supernatants in the presence of 8 μg ml^−1 polybrene. After 48 h, puromycin (2 μg ml^−1) was added to the DMEM. Cells were grown, with selection for 5–7 days to select for stable knockdown cells before oestrogen treatment. For oestrogen treatment, cells were starved in phenol red-free DMEM supplemented with 10% charcoal-stripped FBS (Sigma) for 3–4 days, and 10 nM 17β-estradiol (Sigma) or ethanol (vehicle) were added to the medium (3 or 6 h for gene expression studies, and 15 and 45 min for ChIP experiments) before the cells were collected.

MAGE-A2 = assay: qPCR of MAGE-A2, a G9a-repressed gene, in MCF-7 cells; assay type: cell-based, human; settings: 4 and 8 μM for 24 h, mean +/- S.E.M. of two experiments
Protocol: as §1, with “For oestrogen treatment, cells were starved in phenol red-free DMEM supplemented with 10% charcoal-stripped FBS (Sigma) for 3–4 days, and 10 nM 17β-estradiol (Sigma) or ethanol (vehicle) were added to the medium (3 or 6 h for gene expression studies, and 15 and 45 min for ChIP experiments) before the cells were collected.” left out
Reverse transcription and real-time PCR were performed as described previously. mRNA was prepared using the RNeasy Plus kit (Qiagen) and reverse transcribed using the First Strand Synthesis kit (Invitrogen). Quantitative real-time RT–PCR (qPCR) was performed on an ABI 7500-FAST Sequence Detection System using the Power SYBR Green PCR Master Mix (Applied Biosystems). Gene expression was calculated following normalization to GAPDH levels using the comparative Ct (cycle threshold) method and is shown as ‘Fold' relative to the expression of each gene in the control cells without E2 treatment that was arbitrarily set as ‘1'. […]

[1] = system: ERα target genes (GREB1, PR, TFF1); assay: qPCR of E2-induced ERα target gene expression in MCF-7 cells; assay type: cell-based, human
Protocol: as §1
Reverse transcription and real-time PCR were performed as described previously. mRNA was prepared using the RNeasy Plus kit (Qiagen) and reverse transcribed using the First Strand Synthesis kit (Invitrogen). Quantitative real-time RT–PCR (qPCR) was performed on an ABI 7500-FAST Sequence Detection System using the Power SYBR Green PCR Master Mix (Applied Biosystems). Gene expression was calculated following normalization to GAPDH levels using the comparative Ct (cycle threshold) method and is shown as ‘Fold' relative to the expression of each gene in the control cells without E2 treatment that was arbitrarily set as ‘1'. The primer sequences used for RT–PCR are listed in Supplementary Table 5.

MCF-7 cells [2] = assay: MCF-7 cell proliferation (cell counting); assay type: cell-based, human; settings: different doses; cell numbers counted for 6 days
Protocol: Human MCF-7, T-47D, U2OS and HEK293T cells (ATCC) were cultured in DMEM (Cellgro) supplemented with 10% fetal bovine serum (FBS, Sigma). For G9a inhibitor treatment, BIX-01294 (Sigma) was added to the medium, at the indicated concentrations, 24 h before the cells were collected. For shRNA knockdown, 293T cells were co-transfected with pMD2.G and pPAX2 (Addgene) together with pLKO-shRNA constructs or a non-targeting pLKO-shRNA (pLKO-shCtrl). Viral supernatants were harvested after 48 h. For infections, MCF-7 or T-47D cells were incubated with viral supernatants in the presence of 8 μg ml^−1 polybrene. After 48 h, puromycin (2 μg ml^−1) was added to the DMEM. […]
(a, b) Growth curves of control (shCtrl) and G9a knockdown (shG9a) MCF-7 cells. Cells from 6 wells were counted in triplicates every two days, for 8 days (a) or 6 days (b) after seeding.
(c, d) G9a is required for cell growth in colony formation assays. […] Colonies arising from control and G9 knockdown MCF-7 cells were counted two weeks after seeding (d)
(e) G9a depletion reduces the anchorage-independent growth of MCF-7 cells. […] After four weeks, colonies were counted. At least 5 fields of view were counted for each well.
(f) The catalytic activity of G9a is required for cell growth. MCF-7 cells treated with the indicated doses of BIX-01249 were counted 6 days after seeding. […]

MCF-7 cells [3] = assay: Colony formation assay, MCF-7; assay type: cell-based, human
Protocol: MCF-7 cells treated with shRNAs or BIX-01294 were seeded in six-well plates (1,000 cells per well) and grown in DMEM plus 10% FBS at 37 °C for 10–14 days. For anchorage-independent cell growth assays, 4,000 MCF-7 cells were suspended in DMEM containing 0.4% agar and seeded into six-well plates pre-coated with a base layer of 0.6% agar and grown at 37 °C for 4 weeks. Cells were fixed, stained with 0.005% crystal violet blue and photographed. Colony numbers were counted using ImageJ software with size cutoff of 75 μm. Results were quantitated from three to six wells or three to five views of each well from three independent replicates.

PHF20–ERα interaction = assay: Co-IP of ERα and PHF20 in HEK-293T cells; assay type: cell-based, human; settings: 24 h before co-IP; Flag-ERα and Myc-PHF20 co-transfected HEK-293T
Protocol: as §1
For immunoprecipitation (IP) experiments, each cell fraction was incubated with the anti-FLAG M2-conjugated agarose beads overnight at 4 °C. The beads were washed 3–6 times with cell lysis buffer, and the bound proteins were eluted in SDS buffer and analysed by western blot. […]

[4] = system: G9a, PHF20 and ERα protein levels; assay: Western blot of total G9a, PHF20 and ERα in whole cell extract, HEK-293T cells; assay type: cell-based, human; settings: 24 h; WCE western blot
Protocol: as §1

G9a = settings: cited from earlier work
Text: Next, we sought to determine whether the methyltransferase activity of G9a is required for its co-activation of endogenous ERα target genes. […] (Supplementary Fig. 2a,b). Importantly, under these conditions, although a res ...

COc1cc2nc(N3CCCN(C)CC3)nc(NC3CCN(Cc4ccccc4)CC3)c2cc1OC [BIX-01294]
enzymatic activity of endogenous G9a (global H3K9 methylation levels) (endogenous G9a): effectively inhibited; also recorded: reduces global H3K9me2 levels | derepression of MAGE-A2 (MAGE-A2): derepression of MAGE-A2; also recorded: induces the derepression | E2-induced activation of GREB1 and PR under BIX-01294 ([1]; 4 or 8 μM BIX-01294, 10 nM E2 for 3 h, qPCR, two experiments): clearly impaired by BIX-01294 in a dose-dependent manner; also recorded: inhibits E2-induced activation of GREB1 and PR | residual E2-dependent response under BIX-01294 ([1]; BIX-01294-treated MCF-7 cells, E2): a residual E2 response was sufficient to maintain GREB1 gene expression; also recorded: there was still an E2-dependent response | E2-dependent gene activation under BIX-01294 ([1]; MCF-7, BIX-01294-treated (discussion)): greatly reduced E2-dependent gene activation | cell proliferation (MCF-7 cells [2]): inhibited cell proliferation in a dose-dependent manner | colony formation (MCF-7 cells [3]; 0.5 or 1 μM, 10–14 days, crystal violet): greatly suppressed colony formation | cell survival (MCF-7 cells [3]; indicated doses, MCF-7 colonies, at least three experiments): inhibits cell survival | PHF20–ERα interaction (PHF20–ERα interaction): markedly diminished the PHF20–ERα interaction; also recorded: diminishes the interaction between ERα and PHF20 in cells | total levels of G9a, PHF20 and ERα [4]: not affected | G9a inhibition selectivity (G9a): selective G9a inhibitor
